Data reported in US20230047788A1, “COMPOSITIONS COMPRISING 5-CHOLESTEN-3, 25-DIOL, 3-SULFATE (25HC3S) OR PHARMACEUTICALLY ACCEPTABLE SALT THEREOF AND AT LEAST ONE CYCLIC OLIGOSACCHARIDE” (Virginia Commonwealth University, priority 2016, published 2023).
Values joined by “and” are separate entries in the source; they are usually repeats but may differ in a detail not shown here. Identical values can stand only once.

Test: Infusion compatibility of constituted 25HC3S solution with 5% dextrose, 0.9% sodium chloride and two infusion sets
Format: physicochemical
Conditions: for Osmolality / pH / % Remaining Compared to T = 0 / Concentration / T = 0 Conc.: 5% dextrose bag
Procedure: After constitution with Vehicle, the 30 mg/mL 25HC3S product was diluted into 100 mL of 5% dextrose injection, USP or 0.9% sodium chloride injection, USP, and was administered to subjects as an IV infusion ranging from a 30 mg to 150 mg 25HC3S dose. This was accomplished by adding 1.0 mL (for the 30 mg dose) or 5.0 mL (for the 150 mg dose), or any volume in between, of the 30 mg/mL 25HC3S product into a 100 mL dextrose or sodium chloride infusion bag. The entire admixture content in the infusion bag was infused into the subject over approximately 2 hours at a rate of 50 mL/hour.
A physical and chemical compatibility study was conducted at a 30 mg, 48 mg and 300 mg 25HC3S dose in 5% dextrose and 0.9% sodium chloride infusion bags. Descriptions of the two kinds of infusion sets tested with 25HC3S product diluted in 5% dextrose and 0.9% sodium chloride are listed in Table 15. The tubing in catalog number 2H8480 infusion set was composed of polyvinylchloride (PVC), while the tubing in catalog number 2C8858 was polyethylene lined except for a short pump segment (approximately 12 inches) which was composed of PVC.
25HC3S for Injection and Vehicle for 25HC3S for Injection, that had been stored at 2-8° C. for approximately 16 months, were used for the compatibility study. After constitution, 30 mg (1.0 mL of constituted product), 48 mg (1.6 mL of constituted product) or 300 mg (10 mL of constituted product) were added to 100 mL infusion bags of 5% dextrose and 0.9% sodium chloride, mixed thoroughly, and stored for 24 hours at room temperature and at 2-8° C. […] Taking into consideration the overfill per infusion bag and the additional volume introduced by adding the constituted 25HC3S product to each bag, the expected concentrations of 25HC3S were 0.28 mg/mL, 0.44 mg/mL, and 2.56 mg/mL in the infusion bags. Two kinds of infusion sets were then attached to the drug containing infusion bags, and the entire contents were eluted through the infusion sets at approximately 50 mL/hour at room temperature. Samples were collected from the 25HC3S prepared infusion bags at T=0 and at 24 hours, and from the total eluent passed through the infusion sets, and tested for 25HC3S concentration using HPLC. Solution visual appearance, osmolality (using method USP<785>), and pH (using method USP<791>) were also measured on the collected samples.

[1] = 5% dextrose, ~0.28 mg/mL, 24 h 2-8°C then Baxter 2C8858
[2] = 5% dextrose, ~0.28 mg/mL, 24 h 2-8°C then Baxter 2H8480
[3] = 5% dextrose, ~0.28 mg/mL, 24 h RT then Baxter 2C8858
[4] = 5% dextrose, ~0.28 mg/mL, 24 h RT then Baxter 2H8480
[5] = 5% dextrose, ~0.44 mg/mL, 24 h 2-8°C then Baxter 2C8858
[6] = 5% dextrose, ~0.44 mg/mL, 24 h 2-8°C then Baxter 2H8480
[7] = 5% dextrose, ~0.44 mg/mL, 24 h RT then Baxter 2C8858
[8] = 5% dextrose, ~0.44 mg/mL, 24 h RT then Baxter 2H8480
[9] = 5% dextrose, ~2.56 mg/mL, 24 h 2-8°C then Baxter 2C8858
[10] = 5% dextrose, ~2.56 mg/mL, 24 h 2-8°C then Baxter 2H8480
[11] = 5% dextrose, ~2.56 mg/mL, 24 h RT then Baxter 2C8858
[12] = 5% dextrose, ~2.56 mg/mL, 24 h RT then Baxter 2H8480

With `C[C@H](CCCC(C)(C)O)[C@H]1CC[C@H]2[C@@H]3CC=C4C[C@@H](OS(=O)(=O)[O-])CC[C@]4(C)[C@H]3CC[C@]12C.[Na+]` [25HC3S, 5-cholesten-3, 25-diol, 3-sulfate] the Osmolality (~0.28 mg/mL, 24 Hours at 2-8°C) was 250 mmol/kg and 253 mmol/kg, the pH (~0.28 mg/mL, 24 Hours at 2-8°C) was 7.09 and 7.04 and the “% Remaining Compared to T = 0” value (~0.28 mg/mL, 24 Hours at RT) was “(100.0%)”. The Concentration (~0.28 mg/mL, 24 Hours at RT) was 276 µg/mL and 277 µg/mL, the Osmolality (~0.28 mg/mL, 24 Hours at RT) was 252 mmol/kg and 249 mmol/kg and the pH (~0.28 mg/mL, 24 Hours at RT) was 7.12 and 7.05. The Osmolality (~0.28 mg/mL, T = 0) was 247 mmol/kg and 250 mmol/kg and 251 mmol/kg, the “T = 0 Conc.” value (~0.28 mg/mL, T = 0) was 0.276 mg/mL and 0.277 mg/mL and 0.280 mg/mL and 0.279 mg/mL and the pH (~0.28 mg/mL, T = 0) was 7.09 and 7.03 and 7.10 and 7.04. For the same molecule, the Concentration (~0.44 mg/mL, 24 Hours at 2-8°C) was 438 µg/mL and 440 µg/mL, the Osmolality (~0.44 mg/mL, 24 Hours at 2-8°C) was 254 mmol/kg and 257 mmol/kg and the pH (~0.44 mg/mL, 24 Hours at 2-8°C) was 6.96 and 6.93. For the same molecule, the “% Remaining Compared to T = 0” value (~0.44 mg/mL, 24 Hours at RT) was “(100.0%)”, the Concentration (~0.44 mg/mL, 24 Hours at RT) was 447 µg/mL and 442 µg/mL and the Osmolality (~0.44 mg/mL, 24 Hours at RT) was 256 mmol/kg and 253 mmol/kg. For the same molecule, the pH (~0.44 mg/mL, 24 Hours at RT) was 6.91 and 6.90, the Osmolality (~0.44 mg/mL, T = 0) was 255 mmol/kg and 254 mmol/kg and 256 mmol/kg and the “T = 0 Conc.” value (~0.44 mg/mL, T = 0) was 0.447 mg/mL and 0.442 mg/mL and 0.439 mg/mL. For the same molecule, the pH (~0.44 mg/mL, T = 0) was 6.83 and 6.81 and 6.82 and 6.88, the Concentration (~2.56 mg/mL, 24 Hours at 2-8°C) was 2550 µg/mL and 2530 µg/mL and the Osmolality (~2.56 mg/mL, 24 Hours at 2-8°C) was 246 mmol/kg and 251 mmol/kg. The pH (~2.56 mg/mL, 24 Hours at 2-8°C) was 6.11 and 6.14, the Concentration (~2.56 mg/mL, 24 Hours at RT) was 2470 µg/mL and 2520 µg/mL and the Osmolality (~2.56 mg/mL, 24 Hours at RT) was 257 mmol/kg and 250 mmol/kg. For the same molecule, the pH (~2.56 mg/mL, 24 Hours at RT) was 6.12 and 6.06, the Osmolality (~2.56 mg/mL, T = 0) was 258 mmol/kg and 247 mmol/kg and the “T = 0 Conc.” value (~2.56 mg/mL, T = 0) was 2.500 mg/mL and 2.510 mg/mL and 2.530 mg/mL and 2.525 mg/mL. The pH (~2.56 mg/mL, T = 0) was 6.04 and 6.12 and 6.29 and 6.26, the “deviation of concentrations from initial T=0 time point” value (5% dextrose, 24 hours at RT and 2-8°C and after elution through infusion sets) was ≤ 1.4% and the “% Remaining after infusion set” value [1] was “(100.4%)”. The “Concentration after infusion set” value [1] was 280 µg/mL, the “Osmolality after infusion set” value [1] was 252 mmol/kg and the “pH after infusion set” value [1] was 6.99. The “% Remaining after infusion set” value [2] was “(100.0%)”, the “Concentration after infusion set” value [2] was 280 µg/mL and the “Osmolality after infusion set” value [2] was 251 mmol/kg. The “pH after infusion set” value [2] was 6.95, the “% Remaining after infusion set” value [3] was “(100.0%)” and the “Concentration after infusion set” value [3] was 277 µg/mL. For the same molecule, the “Osmolality after infusion set” value [3] was 252 mmol/kg, the “pH after infusion set” value [3] was 7.04 and the “% Remaining after infusion set” value [4] was “(100.0%)”. The “Concentration after infusion set” value [4] was 276 µg/mL, the “Osmolality after infusion set” value [4] was 252 mmol/kg and the “pH after infusion set” value [4] was 6.99. For the same molecule, the “% Remaining after infusion set” value [5] was “(100.2%)”, the “Concentration after infusion set” value [5] was 440 µg/mL and the “Osmolality after infusion set” value [5] was 255 mmol/kg. For the same molecule, the “pH after infusion set” value [5] was 6.93, the “% Remaining after infusion set” value [6] was “(100.2%)” and the “Concentration after infusion set” value [6] was 440 µg/mL. The “Osmolality after infusion set” value [6] was 257 mmol/kg, the “pH after infusion set” value [6] was 6.91 and the “% Remaining after infusion set” value [7] was “(100.0%)”. For the same molecule, the “Concentration after infusion set” value [7] was 442 µg/mL, the “Osmolality after infusion set” value [7] was 253 mmol/kg and the “pH after infusion set” value [7] was 6.90. For the same molecule, the “% Remaining after infusion set” value [8] was “(100.2%)”, the “Concentration after infusion set” value [8] was 448 µg/mL and the “Osmolality after infusion set” value [8] was 253 mmol/kg. The “pH after infusion set” value [8] was 6.91, the “% Remaining after infusion set” value [9] was “(100.4%)” and the “Concentration after infusion set” value [9] was 2535 µg/mL. The “Osmolality after infusion set” value [9] was 248 mmol/kg, the “pH after infusion set” value [9] was 6.10 and the “% Remaining after infusion set” value [10] was “(100.4%)”. For the same molecule, the “Concentration after infusion set” value [10] was 2540 µg/mL, the “Osmolality after infusion set” value [10] was 247 mmol/kg and the “pH after infusion set” value [10] was 5.99. The “% Remaining after infusion set” value [11] was “(101.4%)”, the “Concentration after infusion set” value [11] was 2545 µg/mL and the “Osmolality after infusion set” value [11] was 251 mmol/kg. For the same molecule, the “pH after infusion set” value [11] was 6.00, the “% Remaining after infusion set” value [12] was “(99.2%)” and the “Concentration after infusion set” value [12] was 2480 µg/mL. For the same molecule, the “Osmolality after infusion set” value [12] was 261 mmol/kg, the “pH after infusion set” value [12] was 6.01 and the solution appearance (dextrose and sodium chloride, all three concentrations, after 24 hours in bags and after elution) was “clear and colorless solutions”. The “decrease of pH over 24 hours in the infusion bags” value (sodium chloride, approximately 0.28 mg/mL 25HC3S) was ~0.5 pH unit.
